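Growth conditions: 96-well plates. Treatment: test compound, 48 hours, 5 concentrations. Analysis: linear interpolation between bracketing concentrations; unreached endpoints set to highest concentration. At the TGI there is no net growth.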
What was measured:
Assay in all cases: growth of human tumour cells (NCI), 48 h
786-0 renal = test system: 786-0 renal
A498 renal = test system: A498 renal
A549 NSCLC = test system: A549 NSCLC
ACHN renal = test system: ACHN renal
CAKI-1 renal = test system: CAKI-1 renal
CCRF-CEM leukemia = test system: CCRF-CEM leukemia
COLO 205 colon = test system: COLO 205 colon
DLD-1 colon = test system: DLD-1 colon
DMS 114 small cell lung = test system: DMS 114 small cell lung
DMS 273 small cell lung = test system: DMS 273 small cell lung
EKVX NSCLC = test system: EKVX NSCLC
HCC-2998 colon = test system: HCC-2998 colon
HCT-116 colon = test system: HCT-116 colon
HCT-15 colon = test system: HCT-15 colon
HL-60(TB) leukemia = test system: HL-60(TB) leukemia
HOP-18 NSCLC = test system: HOP-18 NSCLC
HOP-62 NSCLC = test system: HOP-62 NSCLC
HOP-92 NSCLC = test system: HOP-92 NSCLC
HT29 colon = test system: HT29 colon
IGROV1 ovarian = test system: IGROV1 ovarian
K-562 leukemia = test system: K-562 leukemia
KM12 colon = test system: KM12 colon
KM20L2 colon = test system: KM20L2 colon
LOX IMVI melanoma = test system: LOX IMVI melanoma
LXFL 529 NSCLC = test system: LXFL 529 NSCLC
M14 melanoma = test system: M14 melanoma
M19-MEL melanoma = test system: M19-MEL melanoma
MALME-3M melanoma = test system: MALME-3M melanoma
MOLT-4 leukemia = test system: MOLT-4 leukemia
NCI-H226 lung = test system: NCI-H226 lung
NCI-H23 lung = test system: NCI-H23 lung
NCI-H460 lung = test system: NCI-H460 lung
NCI-H522 lung = test system: NCI-H522 lung
OVCAR-3 ovarian = test system: OVCAR-3 ovarian
OVCAR-4 ovarian = test system: OVCAR-4 ovarian
OVCAR-5 ovarian = test system: OVCAR-5 ovarian
OVCAR-8 ovarian = test system: OVCAR-8 ovarian
RPMI-8226 leukemia = test system: RPMI-8226 leukemia
RXF 393 renal = test system: RXF 393 renal
SF-268 CNS = test system: SF-268 CNS
SF-295 CNS = test system: SF-295 CNS
SF-539 CNS = test system: SF-539 CNS
SK-MEL-2 melanoma = test system: SK-MEL-2 melanoma
SK-MEL-28 melanoma = test system: SK-MEL-28 melanoma
SK-MEL-5 melanoma = test system: SK-MEL-5 melanoma
SK-OV-3 ovarian = test system: SK-OV-3 ovarian
SN12C renal = test system: SN12C renal
SNB-19 CNS = test system: SNB-19 CNS
SNB-75 CNS = test system: SNB-75 CNS
SNB-78 CNS = test system: SNB-78 CNS
SR leukemia = test system: SR leukemia
SW-620 colon = test system: SW-620 colon
TK-10 renal = test system: TK-10 renal
U251 CNS = test system: U251 CNS
UACC-257 melanoma = test system: UACC-257 melanoma
UACC-62 melanoma = test system: UACC-62 melanoma
UO-31 renal = test system: UO-31 renal
BT-549 breast = test system: BT-549 breast
DU-145 prostate = test system: DU-145 prostate
HS 578T breast = test system: HS 578T breast
MCF7 breast = test system: MCF7 breast
MDA-MB-231 breast = test system: MDA-MB-231 breast
MDA-MB-435 = test system: MDA-MB-435
MDA-N = test system: MDA-N
NCI/ADR-RES ovarian = test system: NCI/ADR-RES ovarian
PC-3 prostate = test system: PC-3 prostate
T-47D breast = test system: T-47D breast

Measured: TGI

CC(=O)NC(CCCN(Cc1ccccc1)C(=O)NCCCl)C(=O)NCc1ccccc1 (centres undefined)
not listed: BT-549 breast | DU-145 prostate | HS 578T breast | MCF7 breast | MDA-MB-231 breast | MDA-MB-435 | MDA-N | NCI/ADR-RES ovarian | PC-3 prostate | T-47D breast
> 100 µM: all other assays above

COc1ccc(/C=C/C(=O)c2cc(C(=O)O)c(OC)cc2OC)cc1OC
not listed: CAKI-1 renal | HCC-2998 colon | MALME-3M melanoma | OVCAR-3 ovarian | RXF 393 renal | SK-MEL-2 melanoma | SK-OV-3 ovarian | TK-10 renal | UO-31 renal | BT-549 breast | DU-145 prostate | HS 578T breast | MCF7 breast | MDA-MB-231 breast | MDA-MB-435 | MDA-N | NCI/ADR-RES ovarian | PC-3 prostate | T-47D breast
> 100 µM: all other assays above

COc1cc2c(cc1O)[C@@]1(Cc3ccc(OC)c(OC)c3)CCC(=O)N1CC2
92.4 µM: HOP-92 NSCLC
not listed: NCI-H522 lung | SK-MEL-2 melanoma | SK-OV-3 ovarian | SW-620 colon | U251 CNS | BT-549 breast | DU-145 prostate | HS 578T breast | MCF7 breast | MDA-MB-231 breast | MDA-MB-435 | MDA-N | NCI/ADR-RES ovarian | PC-3 prostate | T-47D breast
> 100 µM: all other assays above

CCCCCCCCCCCCCCCC(=O)Nc1ccn(C2OC(CO)C(O)C2O)c(=O)n1 (centres undefined)
> 88 µM: HOP-62 NSCLC
85.5 µM: HOP-92 NSCLC
> 79.7 µM: NCI-H522 lung
62.7 µM: SR leukemia
81.5 µM: NCI-H23 lung
99.4 µM: ACHN renal
38 µM: LOX IMVI melanoma
7.28 µM: CCRF-CEM leukemia
> 43.9 µM: UO-31 renal
32.5 µM: M14 melanoma
17.3 µM: MOLT-4 leukemia
> 80.8 µM: SNB-19 CNS
> 97.2 µM: RXF 393 renal
> 91.4 µM: HS 578T breast
> 50.3 µM: DU-145 prostate
> 90.4 µM: SNB-75 CNS
43.3 µM: HL-60(TB) leukemia
> 65.6 µM: NCI-H460 lung
> 100 µM: all other assays above

Source: PubChem BioAssay (NCI)
